Values quoted from earlier work as cited in US20090197952A1, “Glyceride Esters for the Treatment of Diseases Associated with Reduced Neuronal Metabolism of Glucose” (priority 2006, published 2009).

What was measured:
[1] = system: patients; conditions: infused at 8-9.3 g/Kg body weight/day to affect hyperketonemia
[2] = system: rats; conditions: infusion
[3] = system: mice; conditions: direct administration
[4] = system: rat; conditions: rat feeding studies
[5] = system: rats; conditions: rat, in vivo

In the case of bisacetoacetin, the detrimental side effects [1] is listed as “No detrimental side effects”.

For `CC(=O)CC(=O)OCC(O)CO` (stereo not drawn) [monoacetoacetin], the detrimental side effects ([2]; elevated levels of ketone bodies achieved) is given as “without any detrimental side effects” and the “rate at which it could be safely infused” value ([2]; level equivalent to 2/3 of the rat's daily caloric requirement) is given as “at least 50 g/kg body weight/day”.

In the case of `CC(O)CC(=O)O` (stereo not drawn) [3-hydroxybutyrate], the protection against neurotoxin [3] is given as “can protect mice against a neurotoxin”.

In the case of `CC(O)CC(=O)OCC(O)CO` (racemic) [1-(DL-3-hydroxybutyryl)-glycerol], the acute toxicity [4] is listed as “not acutely toxic” and the chronic toxicity [4] is listed as “did not show any indication of chronic toxicity”.

For `CC(=O)CC(=O)OCC(COC(=O)CC(C)=O)OC(=O)CC(C)=O` [triacetoacetin], the tolerated amount [5] is listed as 10 g/Kg body weight/day.

For `CC(O)CC(=O)OCC(COC(=O)CC(C)O)OC(=O)CC(C)O` (racemic) [DL-tris-(3-hydroxybutyrl)-glycerol], the acute toxicity [4] is listed as “not acutely toxic” and the chronic toxicity [4] is listed as “did not show any indication of chronic toxicity”.
